Assay results from patent US20250188062A1, “TRIAZINE COMPOUNDS AND METHODS OF MAKING AND USING THE SAME” (Athos Therapeutics, Inc., priority 2021, published 2025).

Assays:
[1] = tested on: THP-1 human monocytes; test: TNF-alpha ELISA (Quantikine) in LPS-treated THP-1 cells; assay type: cell-based; settings: 1 μM, 4 hrs before LPS 50 ng/ml; PMA 25 nM; ELISA of supernatants; FIG. 4A-C, p<0.05 / p<0.01
Method: THP-1 cells were grown to confluence and plated in 6-well plates. PMA (25 nM) was added to the medium and replaced with non-PMA containing medium 24 hrs later. ATH compounds (1 μM) or vehicle (0.1% DMSO) were added and allowed to incubate. After 4 hrs LPS (50 ng/ml) was added without replacement of the medium and supernatants were collected after 4 and […]. Media were placed on ice for cytokine detection using ELISA (Quantikine, R&D Systems).
JMJD3 inhibitors Compound 89, Compound 91 (FIG. 4A, p<005), Compound 97, Compound 92, Compound 93 (FIG. 4B, p<0.01), and Compound 94 (FIG. 4C, p<0.01) show suppression of TNF-alpha (TNFA) expression after LPS (lipopolysaccharide) treatment, in THP-1 human monocytes (FIG. 4A-C, p<0.05 for both).

[2] = molecular target: JMJD3 (Homo sapiens, UniProt O15054); test: JMJD3 binding assay (Kd, affinity beads, qPCR readout); settings: 11-point 3-fold dilution series, 0.9% DMSO, room temperature 1 hour; read-out: JMJD3 Affinity (binding constant, Kd)
Sequence of JMJD3 (O15054 whole entry, species assumed): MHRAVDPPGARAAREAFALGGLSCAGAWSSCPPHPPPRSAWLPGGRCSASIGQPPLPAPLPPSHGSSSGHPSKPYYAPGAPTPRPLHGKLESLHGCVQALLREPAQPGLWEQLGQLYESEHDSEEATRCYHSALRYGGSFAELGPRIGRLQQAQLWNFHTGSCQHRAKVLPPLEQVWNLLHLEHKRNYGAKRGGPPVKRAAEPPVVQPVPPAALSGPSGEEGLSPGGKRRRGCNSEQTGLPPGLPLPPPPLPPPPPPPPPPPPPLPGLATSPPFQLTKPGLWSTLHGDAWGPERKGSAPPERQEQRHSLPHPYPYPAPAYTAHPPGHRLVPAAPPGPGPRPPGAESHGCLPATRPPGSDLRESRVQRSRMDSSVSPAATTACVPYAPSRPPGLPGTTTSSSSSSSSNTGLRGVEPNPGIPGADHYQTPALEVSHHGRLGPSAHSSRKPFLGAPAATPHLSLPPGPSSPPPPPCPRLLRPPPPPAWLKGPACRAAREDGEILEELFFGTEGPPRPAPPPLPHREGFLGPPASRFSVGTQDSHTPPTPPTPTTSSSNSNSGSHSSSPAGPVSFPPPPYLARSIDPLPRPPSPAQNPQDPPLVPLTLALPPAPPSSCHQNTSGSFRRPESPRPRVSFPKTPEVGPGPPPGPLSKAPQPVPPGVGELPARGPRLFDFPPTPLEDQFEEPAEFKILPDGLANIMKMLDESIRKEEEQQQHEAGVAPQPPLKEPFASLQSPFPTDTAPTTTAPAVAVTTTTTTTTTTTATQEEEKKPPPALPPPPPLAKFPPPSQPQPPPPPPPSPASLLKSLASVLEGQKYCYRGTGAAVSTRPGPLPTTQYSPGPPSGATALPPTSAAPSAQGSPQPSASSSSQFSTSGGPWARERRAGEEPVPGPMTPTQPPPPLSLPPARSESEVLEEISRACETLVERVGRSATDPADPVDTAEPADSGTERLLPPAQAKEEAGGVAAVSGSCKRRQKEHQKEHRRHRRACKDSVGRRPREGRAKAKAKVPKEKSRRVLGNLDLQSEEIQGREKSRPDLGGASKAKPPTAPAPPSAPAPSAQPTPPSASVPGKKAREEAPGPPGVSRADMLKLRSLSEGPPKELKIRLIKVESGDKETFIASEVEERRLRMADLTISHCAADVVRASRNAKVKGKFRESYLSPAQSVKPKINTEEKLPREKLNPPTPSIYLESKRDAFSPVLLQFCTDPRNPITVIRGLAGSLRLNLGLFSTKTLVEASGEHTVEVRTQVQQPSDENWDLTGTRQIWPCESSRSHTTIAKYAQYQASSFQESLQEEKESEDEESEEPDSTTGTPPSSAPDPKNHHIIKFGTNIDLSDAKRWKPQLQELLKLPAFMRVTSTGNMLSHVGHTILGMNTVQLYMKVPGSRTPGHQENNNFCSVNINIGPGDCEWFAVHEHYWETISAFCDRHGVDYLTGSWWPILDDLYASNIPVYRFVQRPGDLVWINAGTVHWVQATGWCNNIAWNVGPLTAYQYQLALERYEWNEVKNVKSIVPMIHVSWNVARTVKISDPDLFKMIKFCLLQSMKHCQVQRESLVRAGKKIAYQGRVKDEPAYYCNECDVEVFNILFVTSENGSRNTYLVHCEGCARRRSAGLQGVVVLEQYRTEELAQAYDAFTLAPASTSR
Method: Test compounds were prepared as 111X stocks in 100% DMSO. Kd values are determined using an 11-point 3-fold compound dilution series with three DMSO control points. All compounds for Kd measurements were distributed by acoustic transfer (non-contact dispensing) in 100% DMSO. The compounds were then diluted directly into the assays such that the final concentration of DMSO was 0.9%. All reactions were performed in polypropylene 384-well plate. Each was a final volume of 0.02 ml. The assay plates were incubated at room temperature with shaking for 1 hour and the affinity beads were washed with wash buffer (lx PBS, 0.05% Tween 20). The beads were then re-suspended in elution buffer (lx PBS, 0.05% Tween 20, 0.5 μM non-biotinylated affinity ligand) and incubated at room temperature with shaking for 30 minutes. The kinase concentration in the eluates was measured by qPCR. Binding constants are calculated with a standard dose-response curve using the Hill equation:
The Hill Slope was set to −1. Curves were fitted using a non-linear least square fit with the Levenberg-Marquardt algorithm. The binding data is summarized in Table 2 where A is less than 100 nM, B is 100 to 500 nM, and C is greater than 500 nM.

[3] = tested on: THP-1 human monocytes; test: Cellular assay for anti-inflammatory properties: cytokine ELISA multiplex in LPS-stimulated PMA-differentiated THP-1 macrophages; assay type: cell-based; settings: 1 μM, 4 hours before 100 ng/mL LPS for 4 or 24 hours; cytokine protein in media vs LPS+PMA only
Method: The anti-inflammatory properties of five JMJD3 inhibitors (99, 92, 93, 98, and 95, in no particularly order) were evaluated in an immune cellular assay targeting key pro-inflammatory cytokines involved in the pathogenesis of multiple autoimmune disease.
Specifically, THP-1 human monocytes were grown in 6-well plates (RPMI 1640+10% FBS+1% P/S). After washing with PBS the THP-1 cells were differentiated into macrophages using 20 nM of phorbol 12-myristate 13-acetate (PMA) for 24 hrs. 99, 92, 93, 98, and 95) (1 μM) were added into the macrophages, which are incubated for 4 hours before the addition of 100 ng/mL lipopolysaccharide (LPS) for either 4 or 24 hours. Next, the macrophages are collected via centrifugation at 1.2K rpm for 5 min and use their media to evaluate cytokine protein levels by using the Bio-rad Cytokine ELISA multiplex assay (cat. No M5000031YV). The supernatants from macrophages treated only with only LPS+PMA were collected and used as negative controls.

[4] = tested on: Naïve CD4+ T human cells; test: Cellular assay for FoxP3 induction activity (qPCR of FoxP3 mRNA); assay type: cell-based; settings: CD4+ T cells activated with anti-CD3, IL-2 and TGF-β for 5 days; FoxP3 mRNA by qPCR on day 5; FIG. 3
Method: CD4+CD25+FOXP3+ regulatory T cells (Tregs) suppress pro-inflammatory cells and signals and are critical mediators of tolerance, inhibiting excessive inflammation and autoimmunity. Also, treatment of CD4+ T cells with interleukin 2 (IL-2) and transforming growth factor beta (TGF-β) signaling are important for FOXP3 induction and Treg formation.
Naïve CD4+ T human cells (cat. no 2W-200, Lonza) were cultured and activated with artificial antigen-presenting cells and soluble anti-CD3 (100 ng/ml) in the presence of IL-2 (300 U/ml) and TGF-β (10 ng/ml) for 5 days. On day 3, cells were transfected with an anti-sense RNA against JMJD3 (cat. No 1299001, Thermo) using Lipofectamine 2000 (cat. No 11668027, Thermo). On day 5, RNA was extracted and qPCR analysis was performed to evaluate FoxP3 mRNA levels by using the following primers: F: 5′-TCCACAACATGCGACCCCCTTTCA-3′ and R: 5′-ACAGCCCCCTTCTCGCTCTCCA-3′ having a 217 bp product. All JMJD3 inhibitors (99, 92, 93, 98, and 95) in CD4+ T cells induced 7-fold FoxP3 expression levels, thus moving towards differentiation and formation of Tregs. […] Thus, genetic or pharmacological inhibition of […] will result into FoxP3 activation and induction of Treg formation. Based on this evidence, JMJD3 inhibitors (99, 92, 93, 98, and 95)) could be used in autoimmune diseases where T-regulatory cells have therapeutic potential. There is increasing evidence and literature derived from human clinical studies (Arellano B et al., Regulatory T Cell-based Therapies for Autoimmunity, Discov Med, 22:73-80, 2016).

For `NC(=O)CCNc1nc(-n2cccn2)nc(-n2ccc3ccccc32)n1` [Compound 91, 3-((4-(1H-Indol-1-yl)-6-(1H-pyrazol-1-yl)-1,3,5-triazin-2-yl)amino)propanamide], the “suppression of TNF-alpha (TNFA) expression after LPS treatment” value (“suppression … after LPS treatment” for short) [1] was “suppression” and the Kd [2] was 0.1 to 0.5 µM.
With `c1ccc2c(c1)ccn2-c1nc(N2CCOCC2)nc(-n2cccn2)n1` [Compound 94, 4-(4-(1H-Indol-1-yl)-6-(1H-pyrazol-1-yl)-1,3,5-triazin-2-yl)morpholine] the “suppression … after LPS treatment” value [1] was “suppression” and the Kd [2] was 0.1 to 0.5 µM.
`c1ccc2c(c1)ccn2-c1nc(N2CCNC3(COC3)C2)nc(-n2cccn2)n1` [Compound 60, 8-(4-(1H-Indol-1-yl)-6-(1H-pyrazol-1-yl)-1,3,5-triazin-2-yl)-2-oxa-5,8-diazaspiro[3.5]nonane] showed a Kd [2] of under 0.1 µM.
In the case of `Fc1cc(F)cc(-c2nc(N3CCOCC3)nc(-n3cccn3)n2)c1` [Compound 92, 4-(4-(3,5-Difluorophenyl)-6-(1H-pyrazol-1-yl)-1,3,5-triazin-2-yl)morpholine], the “suppression … after LPS treatment” value [1] is reported as “suppression”, the “suppression of TNF-alpha (TNFA)” value [3] is reported as “suppression” and the “suppression of interleukin 1beta (IL1B)” value [3] is reported as “suppression”. For the same compound, the “suppression of interleukin 5 (IL5)” value [3] was “suppression”, the “suppression of interleukin 6 (IL6)” value [3] was “suppression” and the “suppression of interleukin 8 (IL8)” value [3] was “suppression”. The “suppression of interleukin 13 (IL13)” value [3] was “suppression”, the “FoxP3 expression levels (induction)” value [4] was 7 fold and the Kd [2] was 0.1 to 0.5 µM.
In the case of `COCCNc1nc(-n2cccn2)nc(-n2ccc3ccccc32)n1` [Compound 89, 4-(1H-indol-1-yl)-N-(2-methoxyethyl)-6-(1H-pyrazol-1-yl)-1,3,5-triazin-2-amine], the “suppression … after LPS treatment” value [1] is reported as “suppression” and the Kd [2] is reported as under 0.1 µM.
`CCOC(=O)CCNc1nc(N2CCc3ccccc3CC2)nc(-n2cccn2)n1` [Compound 1, Ethyl 3-((4-(1H-pyrazol-1-yl)-6-(1,2,4,5-tetrahydro-3H-benzo[d]azepin-3-yl)-1,3,5-triazin-2-yl)amino)propanoate] gave a Kd [2] of under 0.1 µM.
`COCNc1nc(-n2cccn2)nc(-n2ccc3ccccc32)n1` [Compound 98, 4-(1H-indol-1-yl)-N-(methoxymethyl)-6-(1H-pyrazol-1-yl)-1,3,5-triazin-2-amine] was tested, and the “suppression of TNF-alpha (TNFA)” value [3] was “suppression”, the “suppression of interleukin 1beta (IL1B)” value [3] was “suppression” and the “suppression of interleukin 5 (IL5)” value [3] was “suppression”. For the same compound, the “suppression of interleukin 6 (IL6)” value [3] was “suppression”, the “suppression of interleukin 8 (IL8)” value [3] was “suppression” and the “suppression of interleukin 13 (IL13)” value [3] was “suppression”. For the same compound, the “FoxP3 expression levels (induction)” value [4] was 7 fold.
`CCOC(=O)CCNc1nc(-n2cccn2)nc(-n2cccn2)n1` [Compound 2, Ethyl 3-((4,6-di(1H-pyrazol-1-yl)-1,3,5-triazin-2-yl)amino)propanoate] was tested, and the Kd [2] was 0.1 to 0.5 µM.
With `Fc1cc(F)cc(-c2nc(N3CCC3)nc(-n3cccn3)n2)c1` [Compound 93, 2-(Azetidin-1-yl)-4-(3,5-difluorophenyl)-6-(1H-pyrazol-1-yl)-1,3,5-triazine] the “suppression … after LPS treatment” value [1] was “suppression”, the “suppression of TNF-alpha (TNFA)” value [3] was “suppression” and the “suppression of interleukin 1beta (IL1B)” value [3] was “suppression”. The “suppression of interleukin 5 (IL5)” value [3] was “suppression”, the “suppression of interleukin 6 (IL6)” value [3] was “suppression” and the “suppression of interleukin 8 (IL8)” value [3] was “suppression”. The “suppression of interleukin 13 (IL13)” value [3] was “suppression”, the “FoxP3 expression levels (induction)” value [4] was 7 fold and the Kd [2] was under 0.1 µM.
With `CCOC(=O)CCNc1nc(-n2cccn2)nc(-n2ccc3ccccc32)n1` [Compound 6, Ethyl 3-((4-(1H-indol-1-yl)-6-(1H-pyrazol-1-yl)-1,3,5-triazin-2-yl)amino)propanoate] the Kd [2] was under 0.1 µM.
For `COCCCNc1nc(-n2cccn2)nc(-n2ccc3ccccc32)n1` [Compound 97, 4-(1H-Indol-1-yl)-N-(3-methoxypropyl)-6-(1H-pyrazol-1-yl)-1,3,5-triazin-2-amine], the “suppression … after LPS treatment” value [1] was “suppression” and the Kd [2] was 0.1 to 0.5 µM.
In the case of `c1ccc2c(c1)ccn2-c1nc(N2CCNCC2)nc(-n2cccn2)n1` [Compound 90, 1-(4-(Piperazin-1-yl)-6-(1H-pyrazol-1-yl)-1,3,5-triazin-2-yl)-1H-indole], the Kd [2] is reported as 0.1 to 0.5 µM.
In the case of `CN1CCN(c2nc(-c3cc(F)cc(F)c3)nc(-n3cccn3)n2)CC1` [Compound 80, 2-(3,5-Difluorophenyl)-4-(4-methylpiperazin-1-yl)-6-(1H-pyrazol-1-yl)-1,3,5-triazine], the Kd [2] is reported as 0.1 to 0.5 µM.
`CCOC(=O)CCNc1nc(-c2cc(F)cc(F)c2)nc(-n2cccn2)n1` [Compound 8, Ethyl 3-((4-(3,5-difluorophenyl)-6-(1H-pyrazol-1-yl)-1,3,5-triazin-2-yl)amino)propanoate] was tested, and the Kd [2] was under 0.1 µM.
In the case of `Fc1cc(F)cc(-c2nc(N3CCNCC3)nc(-n3cccn3)n2)c1` [Compound 99, 2-(3,5-difluorophenyl)-4-(piperazin-1-yl)-6-(1H-pyrazol-1-yl)-1,3,5-triazine], the “suppression of TNF-alpha (TNFA)” value [3] is reported as “suppression”, the “suppression of interleukin 1beta (IL1B)” value [3] is reported as “suppression” and the “suppression of interleukin 5 (IL5)” value [3] is reported as “suppression”. The “suppression of interleukin 6 (IL6)” value [3] was “suppression”, the “suppression of interleukin 8 (IL8)” value [3] was “suppression” and the “suppression of interleukin 13 (IL13)” value [3] was “suppression”. The “FoxP3 expression levels (induction)” value [4] was 7 fold.
`NC(=O)CCNc1nc(-c2cc(F)cc(F)c2)nc(-n2cccn2)n1` [Compound 96, 3-((4-(3,5-Difluorophenyl)-6-(1H-pyrazol-1-yl)-1,3,5-triazin-2-yl)amino)propanamide] showed a Kd [2] of 0.1 to 0.5 µM.
